Target: T1, NudC (Escherichia coli, UniProt P32664)
T1 sequence (P32664 1-257): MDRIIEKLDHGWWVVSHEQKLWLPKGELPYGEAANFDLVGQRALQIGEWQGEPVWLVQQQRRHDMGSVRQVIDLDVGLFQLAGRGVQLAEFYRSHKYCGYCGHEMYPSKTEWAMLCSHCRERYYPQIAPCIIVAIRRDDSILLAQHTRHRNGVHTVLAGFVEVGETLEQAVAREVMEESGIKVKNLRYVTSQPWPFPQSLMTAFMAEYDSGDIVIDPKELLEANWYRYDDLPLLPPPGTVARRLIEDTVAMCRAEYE
Test: in vitro de-capping of NAD-RNA, gel assay, NudC activity plotted against ppGpp
Format: biochemical

- Ki: ~70 µM
Structure (SMILES): Nc1nc2c(ncn2[C@@H]2O[C@H](COP(=O)(O)OP(=O)(O)O)[C@@H](OP(=O)(O)OP(=O)(O)O)[C@H]2O)c(=O)[nH]1 [ppGpp]

Reference: paper doi:10.1101/2023.03.31.535138v1 (biorxiv, 2023)
